Data on eight molecules can be found in ChEMBL document CHEMBL5303304, “EUbOPEN Chemogenomics Library - IncuCyte” (2023).

Common to all, as to assay type: toxicity, cell-based
One series has as its system HEK-293T. Kind of series: Incucyte cell viability with HEK293T. The note with it: human, 10 µM, compound concentration 10 uM.
In a further series the test system is Fibroblast. Kind of series: Incucyte cell viability with human fibroblast. The note with it: 10 µM, compound concentration 10 uM.
The subject of the next series is U2OS. Kind of series: Incucyte cell viability with U2OS. The note with it: human, 10 µM, compound concentration 10 uM.

Structures are written as SMILES.
Also: unitless GR value; below 1 slowed growth and below 0 cell loss.

For the molecule `Cc1cc(NC(=O)c2cccc(NC(=O)/C=C/CN(C)C)c2)ccc1Nc1nccc(-c2cccnc2)n1`, the “Growth Rate” value in the series on HEK-293T (0 h, replicate number 1) was 0; with HEK-293T (0 h, replicate number 2), 0.65; in the series with HEK-293T (6 h, replicate number 1) it was -0.35; with HEK-293T (6 h, replicate number 2), -0.41; with HEK-293T (12 h, replicate number 1), -0.26; in the series with HEK-293T (12 h, replicate number 2) it was -0.35. The “Growth Rate” value in the series with HEK-293T (18 h, replicate number 1) was -0.23; in the series with HEK-293T (18 h, replicate number 2), -0.32; with HEK-293T (24 h, replicate number 1), -0.19; with HEK-293T (24 h, replicate number 2), -0.26; in the series with Fibroblast (0 h, replicate number 1) it was -1; in the series on Fibroblast (0 h, replicate number 2), 0.14. Moreover, the “Growth Rate” value in the series with Fibroblast (6 h, replicate number 1) is 0.07; in the series on Fibroblast (6 h, replicate number 2), 0.32; with Fibroblast (12 h, replicate number 1) it was -0.2; with Fibroblast (12 h, replicate number 2), -0.15; in the series with Fibroblast (18 h, replicate number 1), -0.24; in the series with Fibroblast (18 h, replicate number 2), -0.3. Moreover, the “Growth Rate” value with Fibroblast (24 h, replicate number 1) is -0.22; in the series on Fibroblast (24 h, replicate number 2), -0.29; in the series on U2OS (0 h, replicate number 1), -1; in the series on U2OS (12 h, replicate number 1), 0.69; in the series on U2OS (18 h, replicate number 1), 0.46; with U2OS (18 h, replicate number 2), 0.93. The “Growth Rate” value in the series on U2OS (24 h, replicate number 1) was found to be 0.29; in the series with U2OS (24 h, replicate number 2) it was 0.51.
For `Cc1n[nH]c2ncc(C(=O)N3CCC[C@H]3c3ccc(Cl)cc3)cc12`, the “Growth Rate” value is 0.29 with HEK-293T (0 h, replicate number 1); 0.58 in the series with HEK-293T (6 h, replicate number 2); 0.96 in the series on HEK-293T (12 h, replicate number 2); 1 in the series with HEK-293T (18 h, replicate number 2); 1 in the series on HEK-293T (24 h, replicate number 1); 0.89 in the series on HEK-293T (24 h, replicate number 2). The “Growth Rate” value in the series on Fibroblast (6 h, replicate number 1) was 0.75; in the series on Fibroblast (12 h, replicate number 2), 0.76; in the series with Fibroblast (18 h, replicate number 1), 0.66; in the series with Fibroblast (18 h, replicate number 2) it was 0.99; in the series with Fibroblast (24 h, replicate number 1), 0.73; with Fibroblast (24 h, replicate number 2), 0.92. Also, the “Growth Rate” value in the series with U2OS (6 h, replicate number 1) is recorded as 0.34; in the series on U2OS (12 h, replicate number 1), 0.67; in the series with U2OS (18 h, replicate number 1), 0.94; in the series on U2OS (24 h, replicate number 1) it was 0.91.
As to `Fc1cccc(-n2cnc3c(NCc4nc5ccc(F)c(F)c5[nH]4)nc(N4CCOCC4)nc32)c1`, the “Growth Rate” value in the series on HEK-293T (0 h, replicate number 1) is listed as -0.62; in the series with HEK-293T (6 h, replicate number 1), -0.14; in the series on HEK-293T (6 h, replicate number 2), -0.21; in the series with HEK-293T (12 h, replicate number 1), -0.36; with HEK-293T (18 h, replicate number 1), -0.28; in the series with HEK-293T (18 h, replicate number 2) it was -0.31. Besides, the “Growth Rate” value is -0.21 in the series on HEK-293T (24 h, replicate number 1); -0.25 with HEK-293T (24 h, replicate number 2); -0.08 in the series on Fibroblast (6 h, replicate number 1); -0.22 in the series on Fibroblast (6 h, replicate number 2); 0.02 in the series on Fibroblast (12 h, replicate number 1); -0.11 with Fibroblast (12 h, replicate number 2). Further, the “Growth Rate” value is reported as 0.04 in the series with Fibroblast (18 h, replicate number 1); -0.03 in the series with Fibroblast (18 h, replicate number 2); -0.01 in the series with Fibroblast (24 h, replicate number 1); 0.03 with Fibroblast (24 h, replicate number 2); 0.56 in the series with U2OS (6 h, replicate number 1); 0.06 in the series on U2OS (12 h, replicate number 1). Also, the “Growth Rate” value is on record as -0.23 in the series on U2OS (18 h, replicate number 1); 0.61 in the series on U2OS (18 h, replicate number 2); -0.23 in the series on U2OS (24 h, replicate number 1); 0.38 in the series with U2OS (24 h, replicate number 2).
For the molecule `Fc1ccc(-c2nc(-c3c(F)cccc3F)[nH]c2-c2ccncc2)cc1`, the “Growth Rate” value in the series with HEK-293T (0 h, replicate number 1) is -0.47; with HEK-293T (0 h, replicate number 2) it was 0.65; in the series on HEK-293T (6 h, replicate number 2), 0.27; in the series on HEK-293T (12 h, replicate number 2), 0.5; in the series with HEK-293T (18 h, replicate number 2), 0.62; in the series with HEK-293T (24 h, replicate number 2), 0.68. In addition, the “Growth Rate” value in the series on Fibroblast (0 h, replicate number 1) was -0.99; with Fibroblast (0 h, replicate number 2), 0.29; in the series with U2OS (0 h, replicate number 1), -1; in the series on U2OS (18 h, replicate number 2), 0.97; with U2OS (24 h, replicate number 2), 0.76.
`CN1Cc2nccc(-c3cn(C)nc3-c3ccc(F)cc3)c2C1=O.Cl`: the “Growth Rate” value with HEK-293T (0 h, replicate number 1) is -0.38; in the series with HEK-293T (0 h, replicate number 2), 0.69; in the series with Fibroblast (0 h, replicate number 2) it was 0.28; with U2OS (0 h, replicate number 1) it was 0.53; with U2OS (0 h, replicate number 2), 0.96; in the series on U2OS (18 h, replicate number 1) it was 0.99.
`CC(=O)c1c(C)c2cnc(Nc3ccn(C)n3)nc2n(C2CCCC2)c1=O`: the “Growth Rate” value with HEK-293T (0 h, replicate number 1) is reported as 0.51; with HEK-293T (6 h, replicate number 1) it was 0.81; in the series on HEK-293T (6 h, replicate number 2) it was 0.76; in the series on HEK-293T (12 h, replicate number 1), 0.97; in the series on HEK-293T (12 h, replicate number 2) it was 0.81; with HEK-293T (18 h, replicate number 1) it was 0.9. In addition, the “Growth Rate” value is recorded as 0.79 in the series on HEK-293T (18 h, replicate number 2); 0.79 in the series on HEK-293T (24 h, replicate number 1); 0.83 with HEK-293T (24 h, replicate number 2); 0.93 in the series with Fibroblast (6 h, replicate number 2); 0.8 in the series with Fibroblast (18 h, replicate number 1); 0.67 in the series with U2OS (6 h, replicate number 1). Moreover, the “Growth Rate” value was determined as 0.96 in the series on U2OS (6 h, replicate number 2); 0.06 in the series on U2OS (12 h, replicate number 1); 0.99 in the series with U2OS (12 h, replicate number 2); 0.92 in the series on U2OS (18 h, replicate number 2).
Take `COCCNC1CCC(Nc2cc(-c3csc(NCC4(C#N)CCOCC4)n3)c(Cl)cn2)CC1` (stereo not given): the “Growth Rate” value in the series on HEK-293T (0 h, replicate number 1) is recorded as -0.55; with HEK-293T (0 h, replicate number 2), 0.97; in the series on HEK-293T (6 h, replicate number 1), -0.19; in the series on HEK-293T (6 h, replicate number 2) it was -0.42; in the series with HEK-293T (12 h, replicate number 1), -0.33; with HEK-293T (12 h, replicate number 2), -0.48. Further, the “Growth Rate” value in the series with HEK-293T (18 h, replicate number 1) is listed as -0.33; in the series on HEK-293T (18 h, replicate number 2), -0.43; in the series on HEK-293T (24 h, replicate number 1), -0.24; in the series on HEK-293T (24 h, replicate number 2), -0.35; in the series with Fibroblast (0 h, replicate number 1), -1; in the series on Fibroblast (6 h, replicate number 1) it was 0.99. Moreover, the “Growth Rate” value in the series on Fibroblast (12 h, replicate number 1) is 0.4; in the series on Fibroblast (12 h, replicate number 2), 0.24; in the series with Fibroblast (18 h, replicate number 1) it was 0.16; in the series with Fibroblast (18 h, replicate number 2) it was -0.14; in the series on Fibroblast (24 h, replicate number 1), 0.14; in the series on Fibroblast (24 h, replicate number 2) it was -0.16. Moreover, the “Growth Rate” value is reported as -1 in the series on U2OS (0 h, replicate number 1); 0.51 in the series on U2OS (6 h, replicate number 2); 0.08 in the series with U2OS (12 h, replicate number 2); -0.21 with U2OS (18 h, replicate number 1); 0.04 in the series with U2OS (18 h, replicate number 2); -0.03 in the series on U2OS (24 h, replicate number 2).
Take `O=C1Nc2ccc(I)cc2/C1=C/c1cc(Br)c(O)c(Br)c1`: the “Growth Rate” value in the series with HEK-293T (0 h, replicate number 1) is reported as -0.98; in the series on HEK-293T (0 h, replicate number 2) it was 0.38; in the series on HEK-293T (6 h, replicate number 2), 0.9; in the series on HEK-293T (12 h, replicate number 2), 0.98; in the series on HEK-293T (18 h, replicate number 2), 0.88; in the series with HEK-293T (24 h, replicate number 2) it was 0.86. The “Growth Rate” value in the series with Fibroblast (0 h, replicate number 1) was -1; with U2OS (0 h, replicate number 1), -0.98; in the series on U2OS (0 h, replicate number 2), 0.76.
